Reference: patent publication US20090221648A1, “COMPOSITIONS FOR TREATMENT OF COGNITIVE DISORDERS” (priority 2007, published 2009)
Entries after “also recorded” stand apart in the source; their conditions may differ. Like-named read-outs stand apart in the source and are kept apart here.

Assays:
[1] = system: Spontaneously Hypertensive rat (SHR) pups; assay: 5-trial inhibitory avoidance in SHR rat pups; format: in vivo; conditions: for Level of Efficacy in SHR 5-trial Inhibitory Avoidance Model: applicant's Examples 1 and 2
Description: Methods: In this behavioral paradigm, hypothesized to test aspects of both attention and impulsivity, vehicle-treated Spontaneously Hypertensive rat (SHR) pups show an impaired ability to withhold a natural response to transfer from the light into a preferred dark chamber that is paired with a mild footshock. In this study, SHR pups at postnatal day 22-23 were dosed with either vehicle or atomoxetine (0.001, 0.01, 0.1, 1.0 and 6.0 mg/kg, s.c.) 30 min prior to being tested. They were then placed into the brightly illuminated compartment of a two compartment chamber (Hamilton Kinder, San Diego, Calif.) with a retractable door between the light and dark compartments opened. After animals transferred through the open door to the dark compartment, the door closed automatically and a 0.1 mA scrambled current was applied to a 31 bar stainless steel grid floor for one second. At this point, the pup was removed and returned to its home cage and littermates for a one minute inter trial interval, and the transfer latency was noted. The same pup was returned to the bright compartment, and the process repeated for five trials. Latency to enter the dark compartment was used to evaluate learning.
Methods: In this behavioral paradigm, hypothesized to test aspects of both attention and impulsivity, vehicle-treated SHR rat pups show an impaired ability to withhold a natural response to transfer from the light into a preferred dark chamber that is paired with a mild footshock. In this study, SHR pups at postnatal day 21-25 were dosed with either vehicle or the alpha7 agonist, compound 1,2-methyl-5-[6-phenylpyridazin-3-yl]octahydropyrrolo[3,4-c]pyrrole, (0.01, 0.1, and 1.0 umol/kg, s.c.) 30 min prior to being tested. They were then placed into the brightly illuminated compartment of a two compartment chamber (Hamilton Kinder, San Diego, Calif.) with a retractable door between the light and dark compartments opened. After animals transferred through the open door to the dark compartment, the door closed automatically and a 0.1 mA scrambled current was applied to a 31 bar stainless steel grid floor for one second. At this point, the pup was removed and returned to its home cage and littermates for a one minute inter trial interval, and the transfer latency was noted. The same pup was returned to the bright compartment, and the process repeated for five trials. Latency to enter the dark compartment was used to evaluate learning. Methods for evaluating 2-methyl-5-[6-phenylpyridazin-3-yl]octahydropyrrolo[3,4-c]pyrrole also are described in Tietje, Karin R., et al., Preclinical Characterization of A-582941: A Novel α7 Neuronal Nicotinic Receptor Agonist with Broad Spectrum Cognition-Enhancing Properties, CNS Neuroscience & Therapeutics 14 (2008) 65-82 (2008).
The 5-trial inhibitory avoidance assay in spontaneously hypertensive (SHR) rat pups has been proposed as a model with predictive validity for compounds showing efficacy in attention disorders such as ADHD.

[2] = system: Spontaneously Hypertensive rat (SHR) pups; conditions: from literature (Fox et al. 2002, 2005; Decker et al. 2008), cited from earlier work
rats = rats performing an operant visual signal detection task; Rezvani et al. 2008; cited from earlier work

SMILES: CN1CC2CN(c3ccc(-c4ccccc4)nn3)CC2C1 (stereo not drawn) [Compound 1, 2-methyl-5-[6-phenylpyridazin-3-yl]octahydropyrrolo[3,4-c]pyrrole]
- effect on transfer latency ([1]; SHR pups postnatal day 21-25, 0.01, 0.1 and 1.0 umol/kg s.c., 30 min prior to testing, Mann Whitney p<0.05, FIG. 2): significant, dose dependent effect
- transfer latency ([1]; SHR pups postnatal day 21-25, dose of 1 μmol/kg s.c., FIG. 2): significantly increasing transfer latency
- Level of Efficacy in SHR 5-trial Inhibitory Avoidance Model [1]: full efficacy and Full

SMILES: Cc1ncccc1OC[C@@H]1CCCN1 [ABT-089]
- Level of Efficacy in SHR 5-trial Inhibitory Avoidance Model [2]: full efficacy and Full

SMILES: CNCC[C@@H](Oc1ccccc1C)c1ccccc1 [Atomoxetine, atomoxetine]
- transfer latency compared to vehicle treated animals ([1]; SHR pups postnatal day 22-23, 0.001, 0.01, 0.1, 1.0 and 6.0 mg/kg s.c., 30 min prior to testing, FIG. 1): did not alter transfer latency
- Level of Efficacy in SHR 5-trial Inhibitory Avoidance Model [1]: None
- Level of Efficacy in SHR 5-trial Inhibitory Avoidance Model ([1]; listed as atomoxetine): did not show efficacy; also recorded: not efficacious

SMILES: Cl.O=C(N[C@@H]1CN2CCC1CC2)c1n[nH]c2ccccc12 [R3487/MEM3454]
- visual sustained attention (rats): improve visual sustained attention

SMILES: COC(=O)C(c1ccccc1)C1CCCCN1 (stereo not drawn) [Methylphenidate, methylphenidate]
- Level of Efficacy in SHR 5-trial Inhibitory Avoidance Model [2]: Full
- Level of Efficacy in SHR 5-trial Inhibitory Avoidance Model ([2]; listed as methylphenidate): fully efficacious

SMILES: Cc1cc([C@@H]2CCCN2C)on1 [ABT-418]
- Level of Efficacy in SHR 5-trial Inhibitory Avoidance Model [2]: full efficacy and Full

SMILES: C[C@@H]1CCCN1CCc1cc2cc(-c3ccc(C#N)cc3)ccc2o1 [ABT-239]
- Level of Efficacy in SHR 5-trial Inhibitory Avoidance Model [2]: full efficacy and Full
